Measured values: patent US9907799B2, “Tau aggregation inhibitor” (THE DOSHISHA, priority 2013, dated 2018)

Tests used:
Assay type in all cases: biochemical
[1] = target: T1, human-type tau 0N4R isoform (recombinant tau) (Homo sapiens, UniProt P10636); assay: quantity of sarcosyl insoluble tau by electrophoresis after 168 hours incubation; conditions: incubation for 168 hours; 0.1-100 μM
T1 construct: Fractions including full-length recombinant tau were mixed together; made in house; host or cells: E. coli BL21(DE3)
Method: (§1) First of all, a plasmid expressing human-type tau 0N4R isoform (383 amino acid) was introduced into E. coli BL21(DE3) strain to purify a recombinant tau. The purification was carried out by modifying the method of Taniguchi et al. (see Taniguchi et al., 2008, JBC, 280, 7614). A soluble fraction was prepared based on E. coli in which tau expression had been induced with isopropyl-β-thiogalactopyranoside, and then fractionation was carried out with a phosphocellulose column (e.g., P11 column produced by Whatman). The fraction eluted at an NaCl concentration of 0.1 to 0.3 M was recovered to perform precipitation and concentration using ammonium sulfate. […] The yield and concentration of the tau thus obtained were analyzed by Coomassie Brilliant Blue (CBB) staining after the product was subjected to electrophoresis using 10% polyacrylamide gel.
(§2) The dried and purified recombinant tau sample was dissolved in purified water at a concentration of 0.9 mg/ml. […] Next, their fluorescence value (under excitation light at 360 nm and fluorescent light at 465 nm) was measured with a fluorescent plate reader (infinit F200 produced by TECAN). Thereafter, heparin was added so that the concentration would be 60 μg/ml and then incubation was carried out at 37° C. in a moisture retention box to measure a variation in fluorescence value with time. […]

[2] = target: T1, human-type tau 0N4R isoform (recombinant tau); assay: sucrose density-gradient centrifugation fractionation of polymerized tau, electrophoresis and Western blotting; conditions: 10 μM
Method: as §1, §2

[3] = target: T1, human-type tau 0N4R isoform (recombinant tau); assay: tau aggregation inhibition experiment, thioflavin T fluorescence (heparin-induced); conditions: 1 μM compound, compared to 1 μM isoproterenol under the same incubation condition
Method: First of all, a plasmid expressing human-type tau 0N4R isoform (383 amino acid) was introduced into E. coli BL21(DE3) strain to purify a recombinant tau. The purification was carried out by modifying the method of Taniguchi et al. (see Taniguchi et al., 2008, JBC, 280, 7614). A soluble fraction was prepared based on E. coli in which tau expression had been induced with isopropyl-β-thiogalactopyranoside, and then fractionation was carried out with a phosphocellulose column (e.g., P11 column produced by Whatman). The fraction eluted at an NaCl concentration of 0.1 to 0.3 M was recovered to perform precipitation and concentration using ammonium sulfate. The precipitate thus obtained was dissolved in a buffer containing 0.5 M of NaCl and 2% of 2-mercaptoethanol and then heated to 100° C. for five minutes. Then, the reactant was subjected to a centrifugation at 15,000×g for 15 minutes. The supernatant thus obtained was recovered and then subjected to precipitation and concentration with ammonium sulfate. The precipitate thus obtained was dissolved in a solution containing 20% of acetonitrile and 0.1% of formic acid so as to be purified using reversed phase HPLC (with a Cosmosil protein-R column produced by Nacalai Tesque). Fractions including full-length recombinant tau were mixed together and then the mixture thus obtained was dried with a freeze dryer to obtain a dried and purified recombinant tau sample. The yield and concentration of the tau thus obtained were analyzed by Coomassie Brilliant Blue (CBB) staining after the product was subjected to electrophoresis using 10% polyacrylamide gel.
The dried and purified recombinant tau sample was dissolved in purified water at a concentration of 0.9 mg/ml. […] Next, their fluorescence value (under excitation light at 360 nm and fluorescent light at 465 nm) was measured with a fluorescent plate reader (infinit F200 produced by TECAN). Thereafter, heparin was added so that the concentration would be 60 μg/ml and then incubation was carried out at 37° C. in a moisture retention box to measure a variation in fluorescence value with time. The incubation was carried out for 168 hours, the fluorescence value was measured, and then the reacted solution was recovered to prepare a sarcosyl insoluble fraction. The sarcosyl insoluble fraction was made to have a final concentration of 1% by adding an aqueous solution of 10% (one-tenth quantity of) sodium N-lauroylsarcosinate to the reacted solution recovered. The solution was subjected to incubation at 4° C. for 30 minutes and then subjected to a centrifugation at 100,000×g for 20 minutes to separate the supernatant and the precipitate from each other. With the supernatant fraction and the precipitate regarded as a soluble tau fraction and a sarcosyl insoluble fraction, respectively, the yield of tau was analyzed by electrophoresis using 10% polyacrylamide gel. Also, part of the reacted solution was fractionated by sucrose density-gradient centrifugation using the method of Maeda et al. (see Maeda et al., 2007, Biochemistry, 46, 3856). After the centrifugation, the reactant was fractioned into 1 to 6 according to density and the tau yield was analyzed by 10% polyacrylamide gel electrophoresis and Western blotting.
During screening, the concentration of the compound was supposed to be 1 μM and compared to the effect achieved by 1 μM of isoproterenol under the same incubation condition.

T1 sequence (P10636 1-383 isoform P10636-6): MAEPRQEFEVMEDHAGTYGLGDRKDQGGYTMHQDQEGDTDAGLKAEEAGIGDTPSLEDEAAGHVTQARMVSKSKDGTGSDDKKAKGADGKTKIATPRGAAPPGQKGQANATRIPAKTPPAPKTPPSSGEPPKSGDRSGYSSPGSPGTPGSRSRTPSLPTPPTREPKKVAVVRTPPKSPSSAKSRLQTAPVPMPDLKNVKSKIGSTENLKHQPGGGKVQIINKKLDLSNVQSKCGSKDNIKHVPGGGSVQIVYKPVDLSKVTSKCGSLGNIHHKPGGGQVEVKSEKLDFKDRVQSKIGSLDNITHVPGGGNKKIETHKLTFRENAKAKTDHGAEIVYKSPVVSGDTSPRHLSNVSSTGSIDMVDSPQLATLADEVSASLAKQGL

| Structure (SMILES) | tau polymerization inhibitory activity (thioflavin T activity) [3] | other results |
| --- | --- | --- |
| CC(C)NCC(O)c1ccc(O)c(O)c1 (stereo not shown) [isoproterenol] | – | inhibition of tau polymerization (sarcosyl insoluble tau), concentration dependence [1]: inhibited the tau polymerization depending on the concentration; quantity of the tau recovered in Fraction 3 (oligomer tau) [2]: also seen to decrease; quantity of the tau recovered in Fractions 4 and 5 (fibrosed tau) [2]: seen to decrease significantly |
| NCC(O)c1ccc(Cl)c(Cl)c1 (stereo not shown) [2-amino-1-(3,4-dichlorophenyl)ethanol] | No tau polymerization inhibitory activities | – |
| COc1ccc(O)c(O)c1 [4-methoxycatechol] | did not affect 1,2,4-benzenetriol's intense tau polymerization inhibitory activity | – |
| COc1cccc(O)c1O [3-methoxycatechol] | also exhibited as high tau polymerization inhibitory activity | – |
| NCC(O)c1ccco1 (stereo not shown) [2-amino-1-(furan-2-yl)ethanol] | none of these compounds exhibited the tau polymerization inhibitory activity | – |
| NCCCC(=O)Nc1ccc(O)c(O)c1 [4-(4-aminobutanoylamino) catechol] | decreased significantly to almost the same level as isoproterenol's | – |
| Cn1ccnc1C(O)CN (stereo not shown) [2-amino-1-(1-methyl-1H-imidazol-2-yl)ethanol] | none of these compounds exhibited the tau polymerization inhibitory activity | – |
| Nc1cccc(O)c1O [3-aminocatechol] | inhibited the tau polymerization as strongly as 4-aminocatechol did | – |
| NCc1ccc(O)c(O)c1 [3,4-dihydroxybenzylamine] | as high tau polymerization inhibitory activity as isoproterenol and catechol | – |
| Oc1ccc(Cl)cc1O [4-chlorocatechol] | as high tau polymerization inhibitory activity as isoproterenol and catechol | – |
| COc1ccc(CCN)cc1OC [2-(3,4-dimethoxy)ethylamine] | nor 2-(3,4-dimethoxy)ethylamine (indicated by 3,4-DMPT and represented by the following Chemical Formula (10)) exhibited any tau polymerization inhibitory activity | – |
| CC(C)(C)c1ccc(O)c(O)c1 [4-tert-butylcatechol] | as high tau polymerization inhibitory activity as isoproterenol and catechol | – |
| CC(C)CCN(CCC(C)C)c1ccc(O)c(O)c1 [4-(diisopentylamino) catechol] | decreased significantly to almost the same level as isoproterenol's | – |
| O=C(CCl)c1ccc(O)c(O)c1 [4-chloroacetylcatechol] | somewhat higher tau polymerization inhibitory activity than isoproterenol and catechol | – |
| O=Cc1cccc(O)c1O [2,3-dihydroxybenzaldehyde] | also exhibited as high tau polymerization inhibitory activity | – |
| CC(=O)c1ccc(O)c(O)c1 [3,4-dihydroxyacetophenone] | as high tau polymerization inhibitory activity as isoproterenol and catechol | – |
| NCC(O)c1cccnc1 (stereo not shown) [2-amino-1-(pyridine-3-yl)ethanol] | none of these compounds exhibited the tau polymerization inhibitory activity | – |
| CC(C)CCNc1ccc(O)c(O)c1 [4-(isopentylamino) catechol] | intense tau polymerization inhibitory activity did not change | – |
| O=Cc1ccc(O)c(O)c1 [3,4-dihydroxybenzaldehyde] | exhibited no tau polymerization inhibitory activity | – |
| Oc1ccc(C(O)CN2CCOCC2)cc1O (stereo not shown) [1-(3,4-dihydroxyphenyl)-2-morpholinoethanol] | somewhat higher tau polymerization inhibitory activity than isoproterenol and catechol | – |
| O=C(Nc1ccc(O)c(O)c1)N1CCOCC1 [4-(morpholinocarbonylamino) catechol] | intense tau polymerization inhibitory activity slightly decreased | – |
| COc1ccc(CCN)cc1OC [homoveratylamine] | Neither homoveratylamine (indicated by HV and represented by the following Chemical Formula (9)) nor 2-(3,4-dimethoxy)ethylamine (indicated by 3,4-DMPT and represented by the following Chemical Formula (10)) exhibited any tau polymerization inhibitory activity | – |
| NCC(O)c1ccccc1 (stereo not shown) [2-amino-1-phenylethanol] | No tau polymerization inhibitory activities | – |
